In article PMC2779714 (Science signaling, 2009):

Experiments:
TRPM2 [1] = target: TRPM2 (Mus musculus, UniProt Q91YD4); test: whole-cell patch clamp with intracellular ADPR; type: cell-based
TRPM2 [2] = target: TRPM2 (Rattus norvegicus, UniProt E9PTA2); test: whole-cell patch clamp with intracellular ADPR; type: cell-based
Chain of TRPM2 (Rattus norvegicus, UniProt E9PTA2) (E9PTA2 whole entry): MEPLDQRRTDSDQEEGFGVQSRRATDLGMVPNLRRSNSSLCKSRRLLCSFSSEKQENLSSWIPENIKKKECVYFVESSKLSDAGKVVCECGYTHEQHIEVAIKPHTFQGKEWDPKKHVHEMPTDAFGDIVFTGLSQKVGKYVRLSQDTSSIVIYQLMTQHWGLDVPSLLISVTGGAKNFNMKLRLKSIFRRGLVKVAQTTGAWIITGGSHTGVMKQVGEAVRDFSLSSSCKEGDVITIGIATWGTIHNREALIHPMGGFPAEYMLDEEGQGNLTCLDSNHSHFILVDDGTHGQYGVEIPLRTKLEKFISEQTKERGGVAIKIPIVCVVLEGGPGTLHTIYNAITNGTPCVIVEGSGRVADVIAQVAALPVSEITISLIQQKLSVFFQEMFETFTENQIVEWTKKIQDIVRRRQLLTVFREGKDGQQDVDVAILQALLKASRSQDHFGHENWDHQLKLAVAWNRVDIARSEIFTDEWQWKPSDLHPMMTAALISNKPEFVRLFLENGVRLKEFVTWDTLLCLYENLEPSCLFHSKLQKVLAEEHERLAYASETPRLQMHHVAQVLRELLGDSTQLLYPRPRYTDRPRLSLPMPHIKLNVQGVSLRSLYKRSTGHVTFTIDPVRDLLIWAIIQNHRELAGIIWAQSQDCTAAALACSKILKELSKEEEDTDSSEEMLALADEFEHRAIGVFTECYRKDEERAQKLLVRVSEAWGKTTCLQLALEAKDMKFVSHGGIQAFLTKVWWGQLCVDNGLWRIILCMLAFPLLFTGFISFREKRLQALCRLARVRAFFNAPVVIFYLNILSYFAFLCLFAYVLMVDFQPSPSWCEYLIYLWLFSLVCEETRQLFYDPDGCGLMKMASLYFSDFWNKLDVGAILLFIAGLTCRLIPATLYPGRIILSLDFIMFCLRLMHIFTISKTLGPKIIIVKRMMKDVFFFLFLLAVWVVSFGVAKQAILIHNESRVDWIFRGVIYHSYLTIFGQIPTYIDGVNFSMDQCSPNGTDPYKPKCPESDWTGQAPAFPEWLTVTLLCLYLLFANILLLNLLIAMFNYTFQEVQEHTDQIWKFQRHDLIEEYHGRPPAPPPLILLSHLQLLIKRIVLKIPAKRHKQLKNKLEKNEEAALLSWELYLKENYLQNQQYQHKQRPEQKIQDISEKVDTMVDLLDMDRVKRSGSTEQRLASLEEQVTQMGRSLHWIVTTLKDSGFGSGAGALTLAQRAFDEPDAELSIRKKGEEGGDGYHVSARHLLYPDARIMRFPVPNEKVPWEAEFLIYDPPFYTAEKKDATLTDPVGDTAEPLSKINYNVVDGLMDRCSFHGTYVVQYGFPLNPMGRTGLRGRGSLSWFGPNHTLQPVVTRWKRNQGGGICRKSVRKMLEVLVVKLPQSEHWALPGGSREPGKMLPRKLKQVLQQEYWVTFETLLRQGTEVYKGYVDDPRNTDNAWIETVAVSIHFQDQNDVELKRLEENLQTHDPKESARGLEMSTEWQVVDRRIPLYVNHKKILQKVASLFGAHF

Chain of TRPM2 (Mus musculus, UniProt Q91YD4) (Q91YD4 whole entry): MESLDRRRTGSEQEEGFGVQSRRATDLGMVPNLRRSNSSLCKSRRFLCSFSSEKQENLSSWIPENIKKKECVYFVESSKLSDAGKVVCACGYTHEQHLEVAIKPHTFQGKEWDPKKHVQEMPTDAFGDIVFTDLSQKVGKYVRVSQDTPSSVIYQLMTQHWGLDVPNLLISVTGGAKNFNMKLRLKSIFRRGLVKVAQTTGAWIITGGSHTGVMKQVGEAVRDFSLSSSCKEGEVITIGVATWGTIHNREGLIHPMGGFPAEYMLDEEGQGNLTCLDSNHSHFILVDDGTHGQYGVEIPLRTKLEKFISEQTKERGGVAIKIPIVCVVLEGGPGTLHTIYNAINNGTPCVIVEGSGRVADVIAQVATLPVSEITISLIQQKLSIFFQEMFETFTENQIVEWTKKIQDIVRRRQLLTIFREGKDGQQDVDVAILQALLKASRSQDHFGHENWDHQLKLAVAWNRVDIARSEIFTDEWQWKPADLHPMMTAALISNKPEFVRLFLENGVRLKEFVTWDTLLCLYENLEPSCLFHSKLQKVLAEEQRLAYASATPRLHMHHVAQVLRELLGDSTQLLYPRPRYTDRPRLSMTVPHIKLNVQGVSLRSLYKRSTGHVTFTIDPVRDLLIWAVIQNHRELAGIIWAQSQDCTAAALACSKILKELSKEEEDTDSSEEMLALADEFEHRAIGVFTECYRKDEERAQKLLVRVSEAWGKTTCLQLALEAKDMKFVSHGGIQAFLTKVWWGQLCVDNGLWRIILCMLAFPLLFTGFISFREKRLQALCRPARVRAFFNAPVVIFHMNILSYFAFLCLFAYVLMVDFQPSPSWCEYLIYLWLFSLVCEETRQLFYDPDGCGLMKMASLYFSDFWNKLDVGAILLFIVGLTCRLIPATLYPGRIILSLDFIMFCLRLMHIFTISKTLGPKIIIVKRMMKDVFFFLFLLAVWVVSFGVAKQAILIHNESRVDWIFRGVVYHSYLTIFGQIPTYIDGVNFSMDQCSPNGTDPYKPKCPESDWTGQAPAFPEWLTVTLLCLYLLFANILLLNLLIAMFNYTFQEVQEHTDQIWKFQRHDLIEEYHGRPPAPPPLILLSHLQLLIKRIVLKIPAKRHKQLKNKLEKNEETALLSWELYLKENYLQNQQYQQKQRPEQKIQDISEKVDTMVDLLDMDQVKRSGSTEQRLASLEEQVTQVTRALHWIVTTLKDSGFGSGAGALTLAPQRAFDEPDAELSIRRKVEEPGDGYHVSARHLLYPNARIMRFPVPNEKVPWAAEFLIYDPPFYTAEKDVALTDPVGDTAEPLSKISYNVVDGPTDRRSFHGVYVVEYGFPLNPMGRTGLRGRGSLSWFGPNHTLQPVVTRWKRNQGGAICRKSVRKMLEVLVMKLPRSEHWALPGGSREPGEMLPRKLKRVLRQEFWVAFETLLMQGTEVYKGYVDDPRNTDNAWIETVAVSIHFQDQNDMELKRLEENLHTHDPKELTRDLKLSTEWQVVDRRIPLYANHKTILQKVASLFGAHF

EC50 (TRPM2 [1]): 360 µM
EC50 (TRPM2 [2]): 110 µM
SMILES: Nc1ncnc2c1ncn2[C@@H]1O[C@H](COP(=O)(O)OP(=O)(O)OC[C@H]2OC(O)[C@H](O)[C@@H]2O)[C@@H](O)[C@H]1O (some centres unmarked) [ADPR]
